Entries after “also recorded” stand apart in the source; their conditions may differ. Blank lines part the entries; values can stand above or below the compound they belong to.
Columns and labels:
AKR1C4 = AKR1C4 (Homo sapiens (Human), UniProt P17516); assay: Inhibition of S-tetralol oxidation, AKR1C4; assay type: biochemical
AKR1C1 = AKR1C1 (Homo sapiens (Human), UniProt Q04828); assay: Inhibition of S-tetralol oxidation, AKR1C1; assay type: biochemical; conditions: for IC50: S-tetralol substrate at Km
AKR1C1, sequence (Q04828 whole entry): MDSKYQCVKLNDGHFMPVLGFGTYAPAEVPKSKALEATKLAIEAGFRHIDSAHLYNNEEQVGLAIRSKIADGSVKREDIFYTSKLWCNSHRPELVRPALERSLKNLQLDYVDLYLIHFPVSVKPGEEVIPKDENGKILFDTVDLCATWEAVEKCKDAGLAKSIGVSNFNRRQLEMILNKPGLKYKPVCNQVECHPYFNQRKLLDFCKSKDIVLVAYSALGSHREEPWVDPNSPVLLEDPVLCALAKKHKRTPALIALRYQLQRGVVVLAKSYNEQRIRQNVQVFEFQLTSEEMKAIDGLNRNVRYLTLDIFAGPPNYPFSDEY
Description: Inhibitors were initially screened for an ability to block the NADP+ dependent oxidation of the artificial substrate S-tetralol catalyzed by AKR1C3. S-tetralol was used since it is also a substrate of the highly related AKR1C1 and AKR1C2 enzymes.
Initially, the ratios of IC50 values for AKR1C2 versus AKR1C3 were compared. High ratios were indicative of high selectivity for AKR1C3.
The latter assay is used to determine whether lead compounds act as AR agonists or block 5α-DHT reporter gene activity by acting as androgen receptor antagonists.

[1] = target: homogeneous recombinant AKR1C3 (Homo sapiens (Human), UniProt P42330); assay: Inhibition of NADP+ dependent oxidation of S-tetralol catalyzed by AKR1C3; assay type: biochemical; conditions: S-tetralol substrate at Km
homogeneous recombinant AKR1C3, sequence (P42330 whole entry): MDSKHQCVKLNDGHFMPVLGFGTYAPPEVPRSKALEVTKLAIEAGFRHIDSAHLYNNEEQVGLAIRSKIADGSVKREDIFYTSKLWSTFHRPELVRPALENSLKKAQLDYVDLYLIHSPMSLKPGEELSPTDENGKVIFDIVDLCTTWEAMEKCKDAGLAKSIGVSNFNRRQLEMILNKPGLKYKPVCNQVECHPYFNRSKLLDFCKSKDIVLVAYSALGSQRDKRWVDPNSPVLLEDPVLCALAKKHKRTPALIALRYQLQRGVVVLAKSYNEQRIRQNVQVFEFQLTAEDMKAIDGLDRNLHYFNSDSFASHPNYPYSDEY

AKR1C2 = AKR1C2 (Homo sapiens (Human), UniProt P52895); assay: Inhibition of S-tetralol oxidation, AKR1C2; assay type: biochemical; conditions: for IC50: S-tetralol substrate at Km
AKR1C2, sequence (P52895 whole entry): as the sequence (Q04828 whole entry) above, with T38V, R47H, L54V, C87S, V151M, R170H, Q172L counted along it

androgen receptor (AR) = assay: HeLa-cell androgen receptor (AR) luciferase reporter gene assay driven by DHT; assay type: cell-based; conditions: for AR agonism or antagonism (DHT stimulation of the AR): AR luciferase reporter gene assay; for androgen receptor antagonism: luciferase AR reporter gene assay driven by DHT, FIG. 11
Description: Secondary screens involve one or more of: (a) a full-screen against all nine human recombinant AKR enzymes to ensure there are no-intended off-target effects; (b) a screen against COX-1 and COX-2 to reaffirm that compounds will not act as NSAIDs; and (c) a HeLa-cell androgen receptor (AR) reporter gene assay. The latter assay is used to determine whether lead compounds act as AR agonists or block 5α-DHT reporter gene activity by acting as androgen receptor antagonists.

COX-1 = assay: Screen against COX-1; assay type: biochemical; conditions: at concentrations greater than 100 μM
[2] = system: LNCaP cells stably transfected with AKR1C3; assay: Conversion of Δ4-androstene-3,17-dione to testosterone in LNCaP-AKR1C3 transfected cells; assay type: cell-based, human; conditions: 30 μM
Description: Tertiary screens involve one or more of (d) expanded reporter gene assays to determine whether compounds act as agonists or antagonists of other steroid hormone receptors; (e) inhibition of the conversion of Δ^4-androstene-3,17-dione to testosterone in androgen receptor dependent prostate cancer cells (including, but not limited to LNCaP; available from the American type Culture Collection (ATCC), Manassas, Va., United States of America) stably transfected with AKR1C3; and (f) inhibition of growth of castrate-resistant prostate cancer cells in a murine xenograft model.

VCaP cells = assay: Δ4-androstene-3,17-dione driven expression of PSA in VCaP cells; assay type: cell-based, human
[3] = system: VCaP cells in a murine xenograft model; conditions: Cai et al., 2011; cited from earlier work

AKR1C4, sequence (P17516 whole entry): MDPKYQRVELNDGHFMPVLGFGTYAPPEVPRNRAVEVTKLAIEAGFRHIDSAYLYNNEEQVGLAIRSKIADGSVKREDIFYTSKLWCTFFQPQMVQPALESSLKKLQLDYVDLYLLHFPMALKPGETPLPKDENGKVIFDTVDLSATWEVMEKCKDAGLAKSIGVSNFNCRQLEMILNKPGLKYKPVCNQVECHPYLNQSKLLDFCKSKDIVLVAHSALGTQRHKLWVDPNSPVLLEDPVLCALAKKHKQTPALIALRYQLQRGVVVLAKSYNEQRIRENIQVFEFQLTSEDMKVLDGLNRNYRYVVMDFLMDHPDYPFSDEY

- fold selectivity for AKR1C3 over AKR1C4 (AKR1C4; number in parenthesis): > 135 fold
- fold selectivity for AKR1C3 over AKR1C1 (AKR1C1; number in parenthesis): > 135 fold
- IC50 [1]: 0.74 µM
- IC50 (AKR1C2): 81 µM
- fold selectivity for AKR1C3 over AKR1C2 (AKR1C2; number in parenthesis, ratio of IC50 values): 108 fold
Compound: COc1ccc2c(c1)c(CC(=O)NS(=O)(=O)C(F)(F)F)c(C)n2C(=O)c1ccc(Cl)cc1

- IC50 (AKR1C1): 100 µM
- IC50 [1]: 0.12 µM
- IC50 (AKR1C2): 40.7 µM
Compound: COc1ccc2c(c1)c(CC(=O)O)c(C)n2C(=O)c1ccc(CCl)cc1

- IC50 (AKR1C2): 35.7 µM
Compound: COc1ccc2c(c1)c(CC(=O)O)c(C)n2C(=O)c1ccc(C(F)(F)F)cc1

- IC50 (AKR1C1): 30.7 µM
- IC50 [1]: 0.09 µM
- IC50 (AKR1C2): 49.6 µM
Compound: CCc1c(CCC(=O)O)n(C(=O)c2ccc(Cl)cc2)c2ccc(OC)cc12

- IC50 (AKR1C4; S-tetralol substrate at Km): 3.15 µM
Compound: COc1ccc2c(c1)c1c(n2C(=O)c2ccc(Cl)cc2)CCC(C(=O)O)C1 (stereo not shown)

- IC50 (AKR1C1): 100 µM
- IC50 [1]: 0.34 µM
- IC50 (AKR1C2): 93 µM
Compound: COc1ccc2c(c1)c(C)c(CCC(=O)NS(C)(=O)=O)n2C(=O)c1ccc(Cl)cc1 [drawing 38]

The next lines start with the compound.

Compound: COc1ccc2c(c1)c(CC(=O)O)c(C)n2C(=O)c1ccc(C)cc1
- IC50 [1]: 0.16 µM

Compound: COc1ccc2c(c1)c(CC(=O)NS(=O)(=O)C(F)(F)F)cn2C(=O)c1ccc(Cl)cc1 [Compound 1]
- AR agonism or antagonism (DHT stimulation of the AR) (androgen receptor (AR)): did not act as AR agonists or antagonists
- androgen receptor antagonism (androgen receptor (AR)): lack of androgen receptor antagonism

Compound: COc1ccc2c(c1)c(C)c(CCC(=O)O)n2C(=O)c1ccc(Cl)cc1 [Compound 2]
- COX-1 inhibition (COX-1): did not inhibit COX-1
- AR agonism or antagonism (DHT stimulation of the AR) (androgen receptor (AR)): did not act as AR agonists or antagonists
- androgen receptor antagonism (androgen receptor (AR)): lack of androgen receptor antagonism
- conversion of Δ4-androstene-3,17-dione to testosterone [2]: completely blocked

Compound: COc1ccc2c(c1)c(C)c(CCC(=O)NS(C)(=O)=O)n2C(=O)c1ccc(Cl)cc1 [Compound 3]
- COX-1 inhibition (COX-1): did not inhibit COX-1
- AR agonism or antagonism (DHT stimulation of the AR) (androgen receptor (AR)): did not act as AR agonists or antagonists
- androgen receptor antagonism (androgen receptor (AR)): lack of androgen receptor antagonism
- conversion of Δ4-androstene-3,17-dione to testosterone [2]: completely blocked

Compound: COc1ccc2c(c1)c(C)c(CCC(=O)O)n2C(=O)c1ccc(Cl)cc1 [drawing 37]
- IC50 (AKR1C1): 17.7 µM
- IC50 (AKR1C2): 14.5 µM

Compound: COc1ccc2c(c1)c(CC(=O)O)c(C)n2C(=O)c1ccc(Cl)cc1 [indomethacin]
- Δ4-androstene-3,17-dione driven expression of PSA (VCaP cells): blocked; also recorded: inhibition
- AR dependent gene transcription and tumor growth in xenograft [3]: block AR dependent gene transcription and cell growth and proliferation of the tumor

From US9346803B2 (Vanderbilt University, priority 2011, dated 2016)
